The values below come from patent US20090192198A1, “INHIBITORS OF THE 11-BETA-HYDROXYSTEROID DEHYDROGENASE TYPE 1 ENZYME” (Abbott Laboratories, priority 2005, published 2009).

Data set [1] deals with T1, truncated human 11β-HSD-1 enzyme (24-287AA) (Homo sapiens, UniProt P28845).
T1 construct: truncated human 11β-HSD-1 enzyme (24-287AA); made in house; host or cells: E. coli (lysate)
Nature of the data set: human 11β-HSD-1 enzymatic Scintillation Proximity Assay (SPA). It is filed as biochemical. The conditions noted are these: E. coli lysate with enzyme, 30 min, room temperature. How it is done: (§1) The reaction was stopped by adding a non-specific 11β-HSD inhibitor, 18β-glycyrrhetinic acid. The tritiated cortisol was captured by a mixture of an anti-cortisol monoclonal antibody and SPA beads coated with anti-mouse antibodies. The reaction plate was shaken at room temperature and the radioactivity bound to SPA beads was then measured on a β-scintillation counter. The 11-βHSD-1 assay was carried out in 96-well microtiter plates in a total volume of 220 μl. […] In order to drive the reaction in the forward direction, 1 mM G-6-P was also added. Solid compound was dissolved in DMSO to make a 10 mM stock followed by a subsequent 10-fold dilution with 3% DMSO in Tris/EDTA buffer (pH 7.4). […] Reactions were initiated by the addition of 10 μl of 0.1 mg/ml E. coli lysates overexpressing 11β-HSD-1 enzyme. After shaking and incubating plates for 30 minutes at room temperature, reactions were stopped by adding 10 μl of 1 mM glycyrrhetinic acid. The product, tritiated cortisol, was captured by adding 10 μl of 1 μM monoclonal anti-cortisol antibodies and 100 μl SPA beads coated with anti-mouse antibodies. After shaking for 30 minutes, plates were read on a liquid scintillation counter Topcount. Percent inhibition was calculated based on the background and the maximal signal. Wells that contained substrate without compound or enzyme were used as the background, while the wells that contained substrate and enzyme without any compound were considered as maximal signal. Percent of inhibition of each compound was calculated relative to the maximal signal and IC50 curves were generated. This assay was applied to 11β-HSD-2 as well, whereby tritiated cortisol and NAD^+ were used as substrate and cofactor, respectively.

For data set [2], the target named is T2, human 11-β-HSD-2 (Homo sapiens, UniProt P80365).
T2 sequence (P80365 1-405): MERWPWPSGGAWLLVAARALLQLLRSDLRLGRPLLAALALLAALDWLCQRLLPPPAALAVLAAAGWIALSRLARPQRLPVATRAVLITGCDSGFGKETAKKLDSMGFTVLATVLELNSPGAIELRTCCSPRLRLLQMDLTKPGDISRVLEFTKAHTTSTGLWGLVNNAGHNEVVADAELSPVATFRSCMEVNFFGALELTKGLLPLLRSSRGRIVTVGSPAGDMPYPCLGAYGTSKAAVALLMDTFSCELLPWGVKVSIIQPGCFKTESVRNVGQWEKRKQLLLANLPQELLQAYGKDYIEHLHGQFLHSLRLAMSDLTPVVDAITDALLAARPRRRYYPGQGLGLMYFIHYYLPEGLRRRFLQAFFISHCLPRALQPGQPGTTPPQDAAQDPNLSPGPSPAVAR
Nature of the data set: 11β-HSD-2 Scintillation Proximity Assay (tritiated cortisol, NAD+). Format: biochemical. To be noted: SPA, tritiated cortisol and NAD+. The procedure:
as §1
(In general: SPA uses beads or plates that emit light when radiolabelled molecules are held near them.)

Data set [3] is described as follows: Metabolic stability screen, human liver microsomes. It is filed as in vitro ADME. To be noted: 10 μM substrate, 30 min incubation, 37° C., NADPH. The procedure: (§2) Metabolic stability screen: each substrate (10 μM) was incubated with microsomal protein (0.1-0.5 mg/ml) in 50 mM potassium phosphate buffer (pH 7.4) in 48-Well plate. The enzyme reaction was initiated by the addition of 1 mM NADPH, then incubated at 37° C. in a Form a Scientific incubator (Marietta, Ohio, USA) with gentle shaking. The reactions were quenched by the addition of 800 μl of ACN/MeOH (1:1, v/v), containing 0.5 μM of internal standard (IS), after 30 min incubation. Samples were then filtered by using Captiva 96-Well Filtration (Varian, Lake Forest, Calif., USA) and analyzed by LC/MS (mass spectrometry). Liver microsomal incubations were conducted in duplicate.
(§3) The parent remaining in the incubation mixture was determined by LC/MS. The LC/MS system consisted of an Agilent 1100 series (Agilent Technologies, Waldbronn, Germany) and API 2000 (MDS SCIEX, Ontario, Canada). A Luna C8(2) (50×2.0 mm, particle size 3 μm, Phenomenex, Torrance, Calif., USA) was used to quantify each compound at ambient temperature. The mobile phase consisted of (A): 10 mM NH4AC (pH 3.3) and (B): 100% ACN and was delivered at a flow rate of 0.2 ml/min. Elution was achieved using a linear gradient of 0-100% B over 3 min, then held 100% B for 4 min and returned to 100% A in 1 min. The column was equilibrated for 7 min before the next injection.
(§4) The peak area ratios (each substrate over IS) at each incubation time were expressed as the percentage of the ratios (each substrate over IS) of the control samples (0 min incubation). The parent remaining in the incubation mixture was expressed as the percentage of the values at 0 min incubation. The percentage turnover is calculated using the following equation (% turnover=100% turnover−% parent remaining) and is recorded as the percentage turnover in the Table 2.
A general note: Liver microsomes are vesicles of endoplasmic reticulum, rich in cytochrome P450 enzymes.

Data set [4] can be described thus: Metabolic stability screen, mouse liver microsomes. The conditions noted are these: 10 μM substrate, 30 min incubation, 37° C., NADPH. It is filed as in vitro ADME. The procedure:
as §2, §3, §4

Data set [5] relates to Male CD-1 mice. Nature of the data set: 24-hour inhibitory avoidance in mice, subchronic (3 administration) dosing. It is filed as in vivo. The conditions noted are these: 30 mg/kg PO, BID the day before training and one hour before training, vs vehicle control mice (FIG. 3). The procedure:
Male CD-1 mice were obtained from Charles River, Wilmington, Mass. Mice were group-housed 10 per cage. The body weight upon arrival was 20-25 g. Food and water were available ad libitum except during experiments. Animals were acclimated to the animal facilities for a period of at least one week prior to commencement of experiments. Animals were tested in the light phase of a 12-hour light:12-hour dark schedule (lights on 0600 hours).
Compound AA and Compound BB were synthesized at Abbott Laboratories. […] Compound AA was administered in a cloudy, fine suspension, while Compound BB was administered in a solution.
On training day, mice were injected with Compound AA, Compound BB or vehicle one-hour PO before training. One hour following injection (start of training) mice were subjected to a training session in which they were placed in a lighted compartment of a two-compartment chamber (Gemini apparatus, San Diego Instruments, San Diego, Calif.) with a manually operated gate separating the compartments. […] Twenty-four hours later mice were again tested in the same apparatus, except without shock, and the transfer latency from the lighted to the dark compartment recorded and used as an index of memory for the punished response 24 hours earlier. […] Data were analyzed using Mann Whitney U comparisons. […]

T1 sequence (P28845 24-287): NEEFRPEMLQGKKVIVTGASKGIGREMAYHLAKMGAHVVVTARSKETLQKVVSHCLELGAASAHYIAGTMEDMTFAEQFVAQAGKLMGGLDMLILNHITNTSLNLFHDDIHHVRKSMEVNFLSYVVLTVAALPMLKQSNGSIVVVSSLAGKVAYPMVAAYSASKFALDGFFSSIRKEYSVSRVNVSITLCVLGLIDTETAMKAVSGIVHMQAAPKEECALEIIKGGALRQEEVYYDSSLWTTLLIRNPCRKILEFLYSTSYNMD

For `CC(C)(OCc1ccc(C(F)(F)F)cc1)C(=O)N[C@@H]1[C@@H]2C[C@@H]3C[C@H]1C[C@@](C(N)=O)(C3)C2` [Compound A], the IC50 is 28 nM in data set [1] and above 10000 nM in data set [2]. Besides, in data set [3], the “Human Liver Microsomal Turnover (%)” value was determined as 19%. The “Mouse Liver Microsomal Turnover (%)” value in data set [4] worked out at 37%.

With `CC1CCCCC1OC(C)(C)C(=O)N[C@@H]1[C@@H]2C[C@@H]3C[C@H]1C[C@@](C(=O)O)(C3)C2` (stereo partly shown) [Compound B, E-4-[2-methyl-2-(2-methyl-cyclohexyloxy)-propionylamino]-adamantane-1-carboxylic Acid], the “Human Liver Microsomal Turnover (%)” value in data set [3] stood at 47%. Further, in data set [4], the “Mouse Liver Microsomal Turnover (%)” value is reported as 25%.

Take `CC(C)(Oc1ccc(Cl)cc1)C(=O)NC1C2CC3CC1CC(C(=O)O)(C3)C2` (stereo not shown) [E, E-4-[2-(4-chloro-phenoxy)-2-methyl-propionylamino]-adamantane-1-carboxylic Acid]: the “Human Liver Microsomal Turnover (%)” value in data set [3] was 0%. In addition, in data set [4], the “Mouse Liver Microsomal Turnover (%)” value is 0%.

Turning to `CC(C)(Oc1ccc(Cl)cc1)C(=O)NC1C2CC3CC1CC(/C(N)=N/O)(C3)C2` (stereo not shown) [P, N-{(E)-5-[(Z)-Amino(hydroxyimino)methyl]-2-adamantyl}-2-(4-chlorophenoxy)-2-methylpropanamide], the “memory retention (transfer latency), 24-hour inhibitory avoidance” value in data set [5] is “significant improvement in memory retention”.

`CC(C)(Oc1ccc(-n2cccn2)cn1)C(=O)N[C@@H]1[C@@H]2C[C@@H]3C[C@H]1C[C@@](C(N)=O)(C3)C2` [Y, (E)-4-[(2-Methyl-2-{[5-(1H-pyrazol-1-yl)pyridin-2-yl]oxy}propanoyl)amino]adamantane-1-carboxamide]: the IC50 is 30 nM in data set [1] and above 100000 nM in data set [2].

For the molecule `CC(C)(Oc1ccc(F)cc1Cl)C(=O)N[C@@H]1[C@@H]2C[C@@H]3C[C@H]1C[C@@](S(N)(=O)=O)(C3)C2` [Z, N-[(E)-5-(Aminosulfonyl)-2-adamantyl]-2-(2-chloro-4-fluorophenoxy)-2-methylpropanamide], the results for the IC50 in data set [1] and in data set [2] were 89 nM and above 100000 nM, respectively.

As usually defined, the IC50 is the midpoint of a concentration-inhibition curve.
